This note sets out measurements from patent US20250381243A1, “HETEROCYCLES AND USES THEREOF” (Kumquat Biosciences Inc., priority 2022, published 2025).

SMILES strings stand for the structures.

The first assay deals with A549 cells. The assay can be described thus: Cell proliferation assay (CellTiter-Glo), cells with K-Ras G12S mutation. In kind it is cell-based. The following applies: Homo sapiens, 500 nM to 5 μM (mixed units), read-out: Inhibition of A549 Cells (IC50). Summed up: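 A549 (K-Ras G12S) cells in RPMI-1640 with 10% heat-inactivated FBS, plated in standard or ultra-low-attachment 384-well format, treated next day with a dilution series (e.g., 10-point, 3-fold). Viability read by CellTiter-Glo luminescence about 6 days later; IC50 from four-parameter fit.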
As to `C[C@H]1CC[C@]2(CN(C(=O)n3cnc(C#N)n3)[C@@H]2C2(C)CC2)CN1c1nc(OC[C@@]23CCCN2C[C@H](F)C3)nc2c(F)c(-c3ccc(F)c4sc(N)c(C#N)c34)c(Cl)cc12` [Compound 232, 1-((1R,4R,7S)-6-(7-(2-amino-3-cyano-7-fluorobenzo[b]thiophen-4-yl)-6-chloro-8-fluoro-2-(((2R,7aS)-2-fluorotetrahydro-1H-pyrrolizin-7a(5H)-yl)methoxy)quinazolin-4-yl)-7-methyl-1-(1-methylcyclopropyl)-2,6-diazaspiro[3.5]nonane-2-carbonyl)-1H-1,2,4-triazole-3-carbonitrile], the IC50 lay in the range of 500 to 5000 nM.

The assay is the same for the next values; noted with them: Homo sapiens, ≤500 nM, read-out: Inhibition of A549 Cells (IC50).
As to `CC(C)[C@H]1N(C(=O)n2cnc(C#N)n2)C[C@]12CC[C@H](C)N(c1nc(OC[C@@]34CCCN3C[C@H](F)C4)nc3c(F)c(-c4ccc(F)c5sc(N)c(C#N)c45)c(Cl)cc13)C2` [Compound 227, 1-((1R,4R,7S)-6-(7-(2-amino-3-cyano-7-fluorobenzo[b]thiophen-4-yl)-6-chloro-8-fluoro-2-(((2R,7aS)-2-fluorotetrahydro-1H-pyrrolizin-7a(5H)-yl)methoxy)quinazolin-4-yl)-1-isopropyl-7-methyl-2,6-diazaspiro[3.5]nonane-2-carbonyl)-1H-1,2,4-triazole-3-carbonitrile], the IC50 is at most 500 nM.

`CN(C[C@@H]1CN(C(=O)n2cnc(C(F)F)n2)[C@@H]1C(C)(C)C)c1nc(OC[C@@]23CCCN2C[C@H](F)C3)nc2c(F)c(-c3ccc(F)c4sc(N)c(C#N)c34)c(Cl)cc12` [Compound 228, 2-amino-4-(4-((((2S,3R)-2-(tert-butyl)-1-(3-(difluoromethyl)-1H-1,2,4-triazole-1-carbonyl)azetidin-3-yl)methyl)(methyl)amino)-6-chloro-8-fluoro-2-(((2R,7aS)-2-fluorotetrahydro-1H-pyrrolizin-7a(5H)-yl)methoxy)quinazolin-7-yl)-7-fluorobenzo[b]thiophene-3-carbonitrile]: the IC50 was at most 500 nM. In the case of `C[C@H]1CC[C@]2(CN(C(=O)n3cnc(C(F)F)n3)[C@@H]2C2CCC2)CN1c1nc(OC[C@@]23CCCN2C[C@H](F)C3)nc2c(F)c(-c3ccc(F)c4sc(N)c(C#N)c34)c(Cl)cc12` [Compound 229, 2-amino-4-(6-chloro-4-((1R,4R,7S)-1-cyclobutyl-2-(3-(difluoromethyl)-1H-1,2,4-triazole-1-carbonyl)-7-methyl-2,6-diazaspiro[3.5]nonan-6-yl)-8-fluoro-2-(((2R,7aS)-2-fluorotetrahydro-1H-pyrrolizin-7a(5H)-yl)methoxy)quinazolin-7-yl)-7-fluorobenzo[b]thiophene-3-carbonitrile], the IC50 was at most 500 nM. Still for that read-out and setting: with `CC(C)[C@@H]1[C@H](CN(C)c2nc(OC[C@@]34CCCN3C[C@H](F)C4)nc3c(F)c(-c4ccc(F)c5sc(N)c(C#N)c45)c(Cl)cc23)CN1C(=O)n1cnc(C(F)F)n1` [Compound 230, 2-amino-4-(6-chloro-4-((((2R,3R)-1-(3-(difluoromethyl)-1H-1,2,4-triazole-1-carbonyl)-2-isopropylazetidin-3-yl)methyl)(methyl)amino)-8-fluoro-2-(((2R,7aS)-2-fluorotetrahydro-1H-pyrrolizin-7a(5H)-yl)methoxy)quinazolin-7-yl)-7-fluorobenzo[b]thiophene-3-carbonitrile] the figure was at most 500 nM. As to `CC1([C@H]2N(C(=O)n3cnc(C(F)F)n3)C[C@]23CCCN(c2nc(OC[C@@]45CCCN4C[C@H](F)C5)nc4c(F)c(-c5ccc(F)c6sc(N)c(C#N)c56)c(Cl)cc24)C3)CC1` [Compound 234, 2-amino-4-(6-chloro-4-((1R,4R)-2-(3-(difluoromethyl)-1H-1,2,4-triazole-1-carbonyl)-1-(1-methylcyclopropyl)-2,6-diazaspiro[3.5]nonan-6-yl)-8-fluoro-2-(((2R,7aS)-2-fluorotetrahydro-1H-pyrrolizin-7a(5H)-yl)methoxy)quinazolin-7-yl)-7-fluorobenzo[b]thiophene-3-carbonitrile], the IC50 is at most 500 nM.
